Tests used:
[1] = Active agent release, Microette Hanson vertical diffusion cell, hydrophilic membrane soaked with water; details: for Release kinetics of the active agent: liquid crystal transdermal gel, Q=Q0+nt^0.5
[2] = oral administration; cited from earlier work
[3] = Active agent release, Microette Hanson vertical diffusion cell, lipophilic membrane soaked with isopropyl myristate; details: release from liquid crystal gel, FIGS. 7-14

SMILES	Release kinetics of the active agent [1]	other results
Cc1ccc(C(=O)C(C)CN2CCCCC2)cc1 (stereo not shown) [Tolperisone, 1-piperidino-2-methyl-3-(p-tolyl)-3-propanon]	generally follows the Higuchi-like relationship	
Cc1ncc([N+](=O)[O-])n1CCO [Metronidazole, 1-(2-hydroxy-1-ethyl)-2-methyl-5-nitro-imidazol]	generally follows the Higuchi-like relationship	
CN(C/C=C/C#CC(C)(C)C)Cc1cccc2ccccc12 [Terbinafine, N-(6,6-dimethyl-2-heptene-4-inyl)-N-methyl-(E)-naphtal-1-en-methan-amine]	generally follows the Higuchi-like relationship	
CCOC(=O)C1=C[C@]2(CC)CCCN3CCc4c(n1c1ccccc41)[C@@H]32 [vinpocetine, (3α,16α)-eburnamenine-14-carboxylic acid ethylester]		Bioavailability [2]: 6-8%
CCc1ccc(C(=O)C(C)CN2CCCCC2)cc1 (stereo not shown) [Eperisone, 1-(4-ethyl-phenyl)-2-methyl-3-(1-piperidinyl)-1-propanon]	generally follows the Higuchi-like relationship	
Cc1nccn1CC1CCc2c(c3ccccc3n2C)C1=O (stereo not shown) [Ondansetron, 1,2,3,9-tetrahydro-9-methyl-3-[(2-methyl-1H-imidazol-1-il)-methyl]-4H-karbazol-4-on]	generally follows the Higuchi-like relationship	
CNC1(c2ccccc2Cl)CCCCC1=O (stereo not shown) [Ketamine, 2-(2-chloro-phenyl)-2-(methyl-amino)-cyclohexanon]	generally follows the Higuchi-like relationship	Crossing of the membrane impregnated with lipophilic fluid [3]: do not cross the membrane impregnated with lipophilic fluid; Active agent release in 4 hours, Hydrophilic membrane ([1]; liquid crystal gel with low molecular weight sodium-hyaluronate, ondansetron 1.2%, terbinafine 2.0%, metronidazole 0.9%, eperisone 0.8%, tolperisone 1.0%, ketamine 1.0%): 9.73 μg/cm^2; Crossing of the hydrophilic membrane ([1]; release from liquid crystal gel, FIGS. 7-14): cross the hydrophilic membrane quickly and effectively
